Assay results taken from the CheMixHub drug solubility set.

Experiment: xn = mol fraction of the nth substance listed, in the solute-free solvent

CCCCOc1ccc(C(=O)CCN2CCCCC2)cc1.Cl + CO + C1CCOC1
solubility (g/100 g solution)
Conditions | 278.15 K | 283.15 K | 288.15 K | 293.15 K | 298.15 K | 303.15 K | 308.15 K | 313.15 K | 318.15 K | 323.15 K
x2 = 0.1 | 3.9 | 4.4 | 4.97 | 5.64 | 6.4 | 7.23 | 8.14 | 9.22 | 10.4 | 11.6
x2 = 0.2 | 7.86 | 8.84 | 9.92 | 11.2 | 12.4 | 13.9 | 15.5 | 17.2 | 19.1 | 21.1
x2 = 0.3 | 12 | 13.4 | 14.9 | 16.6 | 18.4 | 20.5 | 22.6 | 24.9 | 27.4 | 30
x2 = 0.4 | 16.3 | 18.1 | 20.1 | 22.3 | 24.6 | 27 | 29.6 | 32.5 | 35.4 | 38.5
x2 = 0.5 | 20.8 | 23.1 | 25.4 | 28 | 30.6 | 33.5 | 36.5 | 39.6 | 42.8 | 46.2
x2 = 0.6 | 25.5 | 28.2 | 30.8 | 33.7 | 36.7 | 39.8 | 43 | 46.4 | 49.9 | 53.3
x2 = 0.7 | 30.6 | 33.5 | 36.5 | 39.6 | 42.9 | 46.2 | 49.6 | 53 | 56.5 | 59.9
x2 = 0.8 | 35.7 | 38.9 | 42 | 45.4 | 48.7 | 52.1 | 55.5 | 59 | 62.5 | 65.8
x2 = 0.9 | 41.3 | 44.6 | 48 | 51.3 | 54.7 | 58.1 | 61.5 | 64.9 | 68 | 71.3

O=C(O)c1cc([N+](=O)[O-])ccc1O + CO + O
solubility (g/100 g solution)
Conditions | 278.15 K | 283.15 K | 288.15 K | 293.15 K | 298.15 K | 303.15 K | 308.15 K | 313.15 K | 318.15 K | 323.15 K
x2 = 0.05881 | 0.117 | 0.173 | 0.235 | 0.287 | 0.359 | 0.429 | 0.505 | 0.603 | 0.726 | 0.877
x2 = 0.1233 | 0.41 | 0.537 | 0.709 | 0.886 | 1.08 | 1.29 | 1.53 | 1.79 | 2.1 | 2.45
x2 = 0.1942 | 1.03 | 1.3 | 1.61 | 2 | 2.42 | 2.83 | 3.35 | 3.9 | 4.5 | 5.22
x2 = 0.2727 | 2.03 | 2.54 | 3.13 | 3.79 | 4.57 | 5.28 | 6.22 | 7.27 | 8.39 | 9.67
x2 = 0.3599 | 4.15 | 4.74 | 5.63 | 6.73 | 7.94 | 9.14 | 10.4 | 11.7 | 13.1 | 14.6
x2 = 0.4576 | 7.29 | 8.14 | 9.16 | 10.4 | 11.9 | 13.4 | 15.2 | 17.1 | 19.2 | 21.5
x2 = 0.5675 | 9.53 | 10.8 | 12.5 | 14.2 | 15.9 | 17.6 | 19.5 | 21.5 | 23.6 | 25.8
x2 = 0.6923 | 11.6 | 12.9 | 14.7 | 17 | 19.2 | 21.1 | 23.1 | 25.2 | 27.2 | 29.4
x2 = 0.835 | 13.8 | 15.1 | 16.8 | 18.7 | 21.1 | 23.3 | 25.3 | 27.6 | 29.8 | 32.4

O=C(O)C1CSCN1 (stereo not given) + O + CC#N
solubility (g/100 g solution)
Conditions | x2 = 0.1 | x2 = 0.2 | x2 = 0.3 | x2 = 0.4 | x2 = 0.5 | x2 = 0.6 | x2 = 0.7 | x2 = 0.8 | x2 = 0.9
283.15 K | 0.0141 | 0.0241 | 0.0323 | 0.084 | 0.183 | 0.365 | 0.573 | 0.965 | 1.4
293.15 K | 0.0189 | 0.0303 | 0.0491 | 0.106 | 0.242 | 0.433 | 0.729 | 1.24 | 1.89
303.15 K | 0.0244 | 0.0416 | 0.0643 | 0.129 | 0.312 | 0.533 | 0.901 | 1.58 | 2.4
313.15 K | 0.0292 | 0.0548 | 0.0787 | 0.159 | 0.392 | 0.679 | 1.17 | 2.04 | 3.06
323.15 K | 0.0343 | 0.0734 | 0.0978 | 0.192 | 0.492 | 0.805 | 1.52 | 2.62 | 3.94
